Experimental data reported in publication PMC7758879, “Tyramine Acts Downstream of Neuronal XBP-1s to Coordinate Inter-tissue UPR^ER Activation and Behavior in C. elegans” (Developmental Cell, 2020).

Target: T1, OCTR-1 (Caenorhabditis elegans, UniProt Q7JP62)
T1 construct: cDNA in KSM vector, cRNA injected into Xenopus laevis oocytes; co-expressed with mouse GIRK1/GIRK2 as reporter
T1 sequence (Q7JP62 1-406): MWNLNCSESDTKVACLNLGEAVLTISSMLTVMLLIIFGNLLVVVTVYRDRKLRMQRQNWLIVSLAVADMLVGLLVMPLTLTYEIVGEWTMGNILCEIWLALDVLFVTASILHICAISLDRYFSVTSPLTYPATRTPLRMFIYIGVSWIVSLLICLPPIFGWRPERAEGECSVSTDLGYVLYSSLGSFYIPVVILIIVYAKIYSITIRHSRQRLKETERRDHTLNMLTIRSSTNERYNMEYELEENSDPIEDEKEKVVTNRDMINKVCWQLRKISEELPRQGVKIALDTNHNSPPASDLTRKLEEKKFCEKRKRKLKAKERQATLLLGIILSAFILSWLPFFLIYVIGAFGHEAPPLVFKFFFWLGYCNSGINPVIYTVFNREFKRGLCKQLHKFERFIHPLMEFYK
Assay: two-electrode voltage clamp, GIRK1/[…] current, Xenopus oocytes
Format: cell-based

Row | SMILES | EC50
1 | NC[C@H](O)c1ccc(O)cc1 [Oct, octopamine] | 0.114 µM
2 | NCCc1ccc(O)cc1 [Tyr, tyramine] | 12.9 µM
